Source: paper PMC6010122 (Journal of Enzyme Inhibition and Medicinal Chemistry, 2017)
Read-outs that look alike come from different tables or passages of the source. Each block holds one molecule with its values, some of them ahead of it.

Legend:
[1] = target: Bcr-Abl^WT (Homo sapiens, UniProt P00519); format: biochemical
[2] = tested on: K562 cells; assay: Cellular antiproliferation assay (CCK-8), K562; format: cell-based; details: Homo sapiens, read-out: Antiproliferation IC50, K562
[3] = tested on: Ba/F3^WT cells; assay: Cellular antiproliferation assay (CCK-8), Ba/F3 expressing Bcr-Abl^WT; format: cell-based, murine; details: Mus musculus, read-out: Antiproliferation IC50, Ba/F3^WT
[4] = tested on: Ba/F3^T315I cells; format: cell-based, murine; details: Mus musculus, read-out: Antiproliferation IC50, Ba/F3^T315I
[5] = tested on: K562R (Q252H) cells; assay: Cellular antiproliferation assay (CCK-8), imatinib-resistant K562R (Q252H); format: cell-based; details: Homo sapiens, K-562R, read-out: Antiproliferation IC50, K562R (Q252H)
[6] = tested on: activation of Bcr-Abl, Crkl and STAT5 in K562 CML cells; assay: Western blot of Bcr-Abl signaling in K562 cells; format: cell-based, human; details: 4.0 h treatment
Experimental: The Western blot analysis was carried out by following the protocol described previously. Briefly, after the indicated treatment, cell lysates were collected, dissolving cells in 1× SDS sample lysis buffer. After being sonicated and boiled, the supernatant of the cell lysate was used for Western blot analysis. Cell lysates were loaded to 8–12% SDS-PAGE and separated by electrophoresis. Separated proteins were then electrically transferred to a PVDF film. After being blocked with 1× TBS containing 0.1% Tween-20, and 5% nonfat milk, the film was incubated with corresponding primary antibody followed by HRP-conjugated secondary antibody. The protein lanes were visualized using ECL Western Blotting Detection Kit (GE Healthcare, Piscataway, NJ).
Figure 3. […] Cells were treated with GZD856 at the indicated concentrations for 4.0 h, and whole cell lysates were then subjected to Western blot analyses. The results represent three independent experiments.

[7] = tested on: K562 xenograft; details: mouse, in vivo, po, 10 mg/kg/day
[8] = tested on: HFL-1 (human embryonic lung fibroblasts); set-up: method as in PMID 26940138; details: human embryonic lung fibroblasts ref 26; read-out: Antiproliferative IC50, HFL-1 non-cancer cells; cited from earlier work
[9] = tested on: K562 xenograft; assay: Subcutaneous K562 xenograft model of human CML
[10] = tested on: MOLT-4 cells; assay: Cellular antiproliferation assay (CCK-8), MOLT-4; format: cell-based; details: Homo sapiens, read-out: Antiproliferation IC50, MOLT-4
[11] = tested on: U937 cells; assay: Cellular antiproliferation assay (CCK-8), U937; format: cell-based; details: Homo sapiens, read-out: Antiproliferation IC50, U937

Sequence of Bcr-Abl^WT (P00519 27-1130): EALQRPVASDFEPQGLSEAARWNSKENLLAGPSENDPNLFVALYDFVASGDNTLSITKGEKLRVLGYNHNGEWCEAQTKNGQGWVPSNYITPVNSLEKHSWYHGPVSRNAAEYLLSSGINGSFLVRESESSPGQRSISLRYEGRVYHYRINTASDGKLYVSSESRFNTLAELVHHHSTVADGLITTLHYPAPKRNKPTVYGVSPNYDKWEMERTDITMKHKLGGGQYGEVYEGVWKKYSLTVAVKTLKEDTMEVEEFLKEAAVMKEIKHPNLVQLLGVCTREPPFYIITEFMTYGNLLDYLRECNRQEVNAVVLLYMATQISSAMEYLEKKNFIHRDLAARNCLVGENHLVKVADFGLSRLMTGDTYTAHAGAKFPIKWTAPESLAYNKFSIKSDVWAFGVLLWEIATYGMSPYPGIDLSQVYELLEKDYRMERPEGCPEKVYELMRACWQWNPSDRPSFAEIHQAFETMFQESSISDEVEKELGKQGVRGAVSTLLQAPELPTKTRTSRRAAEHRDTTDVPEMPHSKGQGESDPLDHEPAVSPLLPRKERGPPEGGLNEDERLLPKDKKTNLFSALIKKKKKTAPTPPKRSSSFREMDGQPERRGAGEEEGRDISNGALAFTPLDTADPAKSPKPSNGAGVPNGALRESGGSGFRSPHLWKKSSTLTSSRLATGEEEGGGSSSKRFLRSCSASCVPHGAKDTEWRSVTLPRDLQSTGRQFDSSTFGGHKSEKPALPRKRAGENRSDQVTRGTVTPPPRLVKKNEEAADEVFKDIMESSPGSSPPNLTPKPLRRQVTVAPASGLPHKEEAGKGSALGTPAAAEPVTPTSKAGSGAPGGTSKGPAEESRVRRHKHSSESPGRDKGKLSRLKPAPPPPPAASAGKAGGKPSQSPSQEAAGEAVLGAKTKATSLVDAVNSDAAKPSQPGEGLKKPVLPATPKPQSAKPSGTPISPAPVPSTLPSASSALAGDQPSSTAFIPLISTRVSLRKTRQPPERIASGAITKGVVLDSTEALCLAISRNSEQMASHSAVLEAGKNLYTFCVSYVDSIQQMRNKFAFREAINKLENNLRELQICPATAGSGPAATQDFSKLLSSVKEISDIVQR

IC50 ([2]; K562, 72 h): 6.5 nM
IC50 ([3]; BaF3, 72 h): 22 nM
IC50 ([4]; BaF3, 72 h): 1460 nM
IC50 ([5]; 72 h): 350 nM
IC50 ([10]; MOLT-4, 72 h): 20400 nM
IC50 ([11]; U-937, 72 h): 9520 nM
Compound: Cc1cn(-c2cc(NC(=O)c3ccc(C)c(Nc4nccc(-c5cccnc5)n4)c3)cc(C(F)(F)F)c2)cn1 [Nilotinib]

IC50 ([2]; K562, 72 h): 0.5 nM
IC50 ([10]; MOLT-4, 72 h): 7.8 nM
IC50 ([11]; U-937, 72 h): 1 nM
Compound: Cc1ccc(C(=O)Nc2ccc(CN3CCN(C)CC3)c(C(F)(F)F)c2)cc1C#Cc1cnc2cccnn12 [Ponatinib, 3-[2-(imidazo[1,2-b]pyridazin-3-yl)ethynyl]-4-methyl-N-{4-[(4-methyl-piperazin-1-yl)methyl]-3-(trifluoromethyl)phenyl}benzamide]

Second part, the molecule before the results:

Compound: Cc1ccc(C(=O)Nc2ccc(CN3CCN(C)CC3)c(C(F)(F)F)c2)cc1C#Cc1cnc2ccnn2c1 [GZD856, 4-Methyl-N-(4-((4-methylpiperazin-1-yl)methyl)-3-(trifluoromethyl)phenyl)-3-(pyrazolo[1,5-a]pyrimidin-6-ylethynyl)benzamide]
IC50 [1]: 19.9 nM
IC50 ([2]; K562, CCK-8, 72 h): 2.2 nM
IC50 ([3]; BaF3, CCK-8, 72 h): 0.64 nM
IC50 ([4]; BaF3, CCK-8, 72 h): 10.8 nM
IC50 ([5]; CCK-8, 72 h): 67 nM
Suppression of activation of Bcr-Abl and downstream Crkl and STAT5 [6]: efficiently suppressed the activation
Tolerability during treatment [7]: well tolerated with no mortality
IC50 [8]: 6780 nM
Body loss relative to vehicle-matched controls ([9]; K562 xenograft mice, oral 10 mg/kg/day, during the treatment): < 5%
Tumor recurrence after cessation of treatment ([9]; K562 xenograft, 10 mg/kg/day, 16 days of dosing, following 7 days): no sign of tumor recurrence
Antitumor effect on tumor ([9]; K562 xenograft, oral 10 mg/kg/day, after 8 days of treatment): almost completely eradicated the tumor

Compound: Cc1ccc(NC(=O)c2ccc(CN3CCN(C)CC3)cc2)cc1Nc1nccc(-c2cccnc2)n1 [Imatinib, imatinib]
Antitumor effect on tumor ([9]; K562 xenograft, oral 50 mg/kg/day): only induced tumor stasis

Compound: CC(=O)O[C@H]1C(=O)[C@@]2(C)[C@H]([C@H](OC(=O)c3ccccc3)[C@]3(O)C[C@H](OC(=O)[C@H](O)[C@@H](NC(=O)c4ccccc4)c4ccccc4)C(C)=C1C3(C)C)[C@]1(OC(C)=O)CO[C@@H]1C[C@@H]2O [Taxol]
IC50 ([2]; K562, CCK-8, 72 h): 5.1 nM
IC50 ([5]; CCK-8, 72 h): 7 nM
IC50 ([10]; MOLT-4, CCK-8, 72 h, negative for Bcr-Abl expression): 2.7 nM
IC50 ([11]; U-937, CCK-8, 72 h, negative for Bcr-Abl expression): 2.3 nM
